The values that follow come from patent publication US20240307409A1, “ARGININE METHYLTRANSFERASE INHIBITOR AND USE THEREOF” (Cytosinlab Therapeutics Co., Ltd., priority 2021, published 2024).

A word on the IC50: it is the concentration needed to halve the response being measured.

One assay concerns the target PRMT1 (Homo sapiens, UniProt Q99873). Put plainly: PRMT1 enzyme activity test. The assay is classed as biochemical. The note with it: 0.5 nM PRMT1, 3H-SAM, peptide. An outline of the steps: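 Radiometric methylation assay: 0.5 nM PRMT1 preincubated 15 min at room temperature with compound (10-point 3-fold series, 1% DMSO) in pH 8.0 Tris buffer with Tween-20 and DTT. 0.25 uM ³H-SAM and 0.1 uM biotinylated peptide then reacted 120 min. Product captured on streptavidin FlashPlate and counted; IC50 from four-parameter fit of % inhibition.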

Another assay relates to Toledo cells. Briefly: Toledo cell proliferation inhibition assay. The assay is classed as cell-based. Particulars: Homo sapiens, Toledo, 144 h; six-day assay, CellTiter-Glo. An outline of the steps: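 Toledo cells seeded at 2000 cells/well in RPMI 1640 + 10% FBS and incubated with compound for six days at 37° C, 5% CO2. Viability was then read by CellTiter-Glo luminescence after 30 min orbital mixing.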
(Cellular ATP, detected with luciferase, serves as a proxy for viable cell number.)

Another assay relates to MMA in RKO cells. Briefly: RKO In Cell Western assay (MMA primary antibody). The assay is classed as cell-based. The note with it: Homo sapiens, 72 hours, read-out: RKO ICW_EC30. How it is done: RKO was seeded at a concentration of 20,000 cells/ml into a polylysine-coated 96-well plate (Corning #3599), with 2,000 cells per well and 100 μL of culture mediumper well. 500 nL of compound was added to the 96-well plate. 3) The 96-well plate was incubated in a 37° C., 5% CO2 incubator for 72 hours. After three days, the 96-well plate was taken from the incubator, 100 μL of 8% paraformaldehyde solution was added to each well, and the plate was placed at room temperature for 15 min. After 15 min, the liquid in the plate was shaken out and the plate was washed three times with phosphate buffer (1*PBS). The liquid in the plate was shaken out and 200 μL of membrane-breaking buffer (0.1% (v/v) Tween-20 in PBS) was added and the plate was incubated on a shaker for 30 min. After half an hour, the liquid in the plate was shaken out, and blocking buffer was added and the plate was incubated for two hours at room temperature with shaking. After that, the liquid in the plate was shaken off, and the blocking solution containing primary antibody (MMA primary antibody, CST #8711S, 1:1000 v/v) was added to the 96-well plate and the plate was incubated at 4° C. overnight with shaking. The next day, the plate was washed three times with washing solution (0.05% (v/v) Tween-20 in PBS), and a blocking solution containing secondary antibody (goat anti-rabbit IgG (H+L) Invitrogen #31460, 1:10,000 v/v) was added and the plate was incubated for two hours at room temperature. Afterwards, the 96-well plate was washed four times with washing solution. The TMB mixture was added to the 96-well plate and then the plate was incubated for 15 minutes at room temperature with shaking. After that, the reaction terminating solution was added, and the value was read at OD450 nm using an microplate reader. The plate was washed three times with washing solution, and 50 μL of janusgreen staining solution was added, and the plate was incubated for 15 minutes at room temperature with shaking. The reaction was washed ten times with water until no color residue was left. 200 μL of 0.5 M hydrochloric acid solution was added to each well and the plate was incubated for 10 min at room temperature. The value was read at OD595 nm using Flexstation.
Firstly, the ratio OD450/OD595 was calculated for each well
Each plate had six DMSO negative control groups (ZPE) and six 10 μM positive control groups (HPE), and the average of the control group ratios was used to determine the percentage of activation for each test well. The compounds to be tested were triple diluted with DMSO for a total of 8 concentration points with a starting concentration of 5 μM. The equation for calculating the activation percentage of each test well was: […]

Molecules are shown by their SMILES.

PRMT1, sequence (Q99873 whole entry): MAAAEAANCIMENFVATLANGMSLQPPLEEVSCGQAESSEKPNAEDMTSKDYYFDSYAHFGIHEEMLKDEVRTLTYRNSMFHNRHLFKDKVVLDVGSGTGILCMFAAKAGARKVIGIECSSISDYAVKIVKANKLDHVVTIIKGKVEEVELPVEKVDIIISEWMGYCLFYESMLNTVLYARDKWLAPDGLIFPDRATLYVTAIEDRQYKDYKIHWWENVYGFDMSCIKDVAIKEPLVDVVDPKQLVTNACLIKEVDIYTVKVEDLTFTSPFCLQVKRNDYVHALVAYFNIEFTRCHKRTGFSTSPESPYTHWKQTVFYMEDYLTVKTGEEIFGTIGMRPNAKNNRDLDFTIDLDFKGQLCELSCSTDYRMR

For `CNCCN(C)Cc1ccc(C)nc1C1CCN(c2cccc(C)c2)CC1` [P081, N^1,N^2-dimethyl-N1-((6-methyl-2-(1-(m-tolyl)piperidin-4-yl)pyridin-3-yl)methyl)ethane-1,2-diamine], the half-inhibitory concentration (IC50) at PRMT1 is below 50 nM; with Toledo cells, below 1000 nM. In the assay with MMA in RKO cells, the EC30 was below 250 nM.
The matching figures for `CNCCN(C)Cc1ccc(C(C)O)cc1C1CCN(c2cccc(C)c2)CC1` (stereo not drawn) [P083]: below 50 nM, below 1000 nM and below 250 nM.
For the compound `CNCCN(C)Cc1ncccc1C1CCN(c2cc(C)cc(F)c2)CC1` [P085], the IC50 against PRMT1 is below 50 nM; in the assay on Toledo cells it was below 1000 nM. Besides, in the assay on MMA in RKO cells, the EC30 was below 250 nM.
Turning to `CNCCN(C)Cc1ncccc1N1CCc2ccc(C(F)(F)F)cc2CC1` [P088, N^1,N^2-dimethyl-N^1-((3-(7-(trifluoromethyl)-4,5-dihydro-1H-benzo[d]azepin-3(2H)-yl)pyridin-2-yl)methyl)ethane-1,2-diamine], the figures for the IC50 against PRMT1 and in the assay on Toledo cells were below 50 nM and below 1000 nM, respectively. Also, in the assay on MMA in RKO cells, the EC30 is 250 to 2500 nM.
The matching figures for `CNCCN(C)Cc1ncccc1C1CCN(c2cccc(Cl)c2)CC1` [P089]: below 50 nM, below 1000 nM and below 250 nM.
The matching figures for `CNCCN(C)Cc1ncccc1C1CCN(c2cccc(C)c2)CC1` [P094]: below 50 nM, below 1000 nM and below 250 nM.
As to `CNCCN(C)Cc1ncccc1C1CCN(c2ccccc2C)CC1` [P095], the 50% inhibitory concentration (IC50) is below 50 nM against PRMT1 and below 1000 nM with Toledo cells. Besides, in the assay with MMA in RKO cells, the EC30 is below 250 nM.
The matching figures for `CNCCN(C)Cc1ncccc1N1CCc2cc(F)cc(F)c2CC1` [P106]: below 50 nM, below 1000 nM and 250 to 2500 nM.
Consider `CNCCN(C)Cc1ncccc1N1CCc2cc(F)c(F)cc2CC1` [P107], for which the half-maximal inhibitory concentration (IC50) on PRMT1 is below 50 nM; with Toledo cells it was below 1000 nM. Moreover, in the assay on MMA in RKO cells, the EC30 is 250 to 2500 nM.
The matching figures for `CNCCN(C)Cc1ncccc1N1CCc2ccccc2C(C)C1` (stereo not drawn) [P112]: below 50 nM, below 1000 nM and 250 to 2500 nM.
The matching figures for `CCOCC1(COCC)CCC(c2ccccc2CN(C)CCNC)CC1` [P114]: below 50 nM, below 1000 nM and below 250 nM.
Consider `CNCCN(C)Cc1ncccc1N1CCC(Oc2cc(C(F)(F)F)cc(C(F)(F)F)c2)CC1` [P122], for which the IC50 against PRMT1 was 50 to 500 nM; in the assay on Toledo cells, below 1000 nM. Besides, the EC30 in the assay on MMA in RKO cells was above 2500 nM.
The matching figures for `CNCCN(C)Cc1ncccc1N1CCC(COc2ccc(C(F)(F)F)cc2)CC1` [P130]: below 50 nM, below 1000 nM and 250 to 2500 nM.
The matching figures for `CNCCN(C)Cc1ncccc1N1CCC(COc2cccc(C(F)(F)F)c2)CC1` [P131]: below 50 nM, below 1000 nM and 250 to 2500 nM.
The matching figures for `CCOCC1(COCC)CCN(c2ccccc2CN(C)CCNC)CC1` [P136]: below 50 nM, below 1000 nM and 250 to 2500 nM.
On to `CNCCN(C)Cc1ncccc1N1CCC(Oc2cc(F)cc(C(F)(F)F)c2)CC1` [P137], for which the half-inhibitory concentration (IC50) against PRMT1 is below 50 nM; in the assay with Toledo cells it was below 1000 nM. In the assay on MMA in RKO cells, the EC30 lay within 250 to 2500 nM.
As for `CNCCN(C)Cc1ncccc1N1CCC(Oc2cccc(C(F)(F)F)c2)CC1` [P141], the half-inhibitory concentration (IC50) on PRMT1 is below 50 nM; in the assay with Toledo cells, below 1000 nM. Also, the EC30 in the assay on MMA in RKO cells fell in the range of 250 to 2500 nM.
The corresponding values for `CNCCN(C)Cc1ncccc1N1CCC(Oc2ccc(C(F)(F)F)cc2)CC1` [P142] are below 50 nM, below 1000 nM and 250 to 2500 nM.
Turning to `CNCCN(C)Cc1ncccc1C1CCN(c2cccc(OC(F)(F)F)c2)CC1` [P143], the concentration for half-maximal inhibition (IC50) against PRMT1 was below 50 nM; with Toledo cells it was below 1000 nM. In addition, the EC30 with MMA in RKO cells was in the range of 250 to 2500 nM.
The corresponding values for `CNCCN(C)Cc1ncccc1N1CCC(Oc2cccc(C(F)F)c2)CC1` [P147] are below 50 nM, below 1000 nM and 250 to 2500 nM.
The corresponding values for `CNCCN(C)Cc1ncccc1N1CCC(Oc2cc(C)cc(C)c2)CC1` [P148] are below 50 nM, below 1000 nM and 250 to 2500 nM.
Regarding `CNCCN(C)Cc1ncccc1N1CCC(C)(COc2ccccc2)CC1` [P149], the IC50 at PRMT1 was below 50 nM; with Toledo cells, below 1000 nM. Also, the EC30 in the assay with MMA in RKO cells is 250 to 2500 nM.
The matching figures for `CNCCN(C)Cc1ccc(-c2cn[nH]c2)cc1C1CCN(c2cccc(C)c2)CC1` [P153]: below 50 nM, below 1000 nM and below 250 nM.
`CNCCN(C)Cc1ncccc1[C@H]1CC[C@]2(CC1)COC(C)(C)C2` [P157]: the IC50 is below 50 nM at PRMT1 and below 1000 nM with Toledo cells. Further, the EC30 in the assay on MMA in RKO cells lay within 250 to 2500 nM.
The matching figures for `CNCCN(C)Cc1ncccc1[C@H]1CC[C@@]2(CC1)COC(C)(C)C2` [P158]: below 50 nM, below 1000 nM and below 250 nM.
The matching figures for `CNCCN(C)Cc1ncccc1N1CCC(COc2ccccc2)CC1` [P165]: below 50 nM, below 1000 nM and 250 to 2500 nM.
As to `CNCCN(C)Cc1ccc2[nH]ncc2c1C1CCc2cc(F)c(F)cc2CC1` [P167, N1-((4-(2,3-difluoro-6,7,8,9-tetrahydro-5H-benzo[7]cyclopenten-7-yl)-1H-indazol-5-yl)methyl)-N1,N2-dimethylethane-1,2-diamine], the IC50 at PRMT1 is below 50 nM; with Toledo cells, below 1000 nM. In the assay with MMA in RKO cells, the EC30 is below 250 nM.
The matching figures for `CNCCN(C)Cc1ncccc1C1CCN(c2ccccc2OC)CC1` [P170]: below 50 nM, below 1000 nM and 250 to 2500 nM.
Take `CNCCN(C)Cc1ncccc1N1CCC(Oc2cccc(C)c2)CC1` [P171]: the half-maximal inhibitory concentration (IC50) was below 50 nM at PRMT1 and below 1000 nM in the assay on Toledo cells. In addition, the EC30 in the assay with MMA in RKO cells is 250 to 2500 nM.
Take `CNCCN(C)Cc1ncccc1N1CCC(Oc2cccc(F)c2)CC1` [P179]: the results for the IC50 against PRMT1 and in the assay on Toledo cells were below 50 nM and below 1000 nM, respectively. In the assay on MMA in RKO cells, the EC30 was in the range of 250 to 2500 nM.
The matching figures for `CCOCC1(Oc2cccc(C(F)(F)F)c2)CCN(c2cccnc2CN(C)CCNC)CC1` [P184]: 50 to 500 nM, below 1000 nM and above 2500 nM.
The matching figures for `CNCCN(C)Cc1ncccc1N1CCC(Oc2ccccc2)CC1` [P185]: below 50 nM, below 1000 nM and 250 to 2500 nM.
As to `CNCCN(C)Cc1ncccc1N1CCc2ccc(OC)cc2CC1` [P186], the IC50 against PRMT1 was below 50 nM; in the assay on Toledo cells, below 1000 nM. Besides, the EC30 in the assay with MMA in RKO cells fell in the range of 250 to 2500 nM.
On to `CNCCN(C)Cc1ncccc1C1CCN(c2ccc(C#N)c(C)c2)CC1` [P187], for which the IC50 against PRMT1 was below 50 nM; in the assay with Toledo cells, below 1000 nM. Also, in the assay with MMA in RKO cells, the EC30 is below 250 nM.
In the case of `CNCCN(C)Cc1ccc(N)nc1C1CCc2cc(F)c(F)cc2CC1` [P198], the figures for the half-inhibitory concentration (IC50) against PRMT1 and with Toledo cells were below 50 nM and below 1000 nM, respectively. The EC30 in the assay on MMA in RKO cells is below 250 nM.
The corresponding values for `CNCCN(C)Cc1ncccc1C1CCN(c2ccc(C#N)cc2)CC1` [P202] are below 50 nM, below 1000 nM and 250 to 2500 nM.
In the case of `CCOCC1(COCC)CCC(c2cnccc2CN(C)CCNC)CC1` [P206], the IC50 at PRMT1 lay within 50 to 500 nM; in the assay with Toledo cells it was 1000 to 5000 nM. The EC30 in the assay with MMA in RKO cells was in the range of 250 to 2500 nM.
The corresponding values for `CCOCC1(COCC)CCC(c2ncccc2CN(C)CCNC)CC1` [P208] are below 50 nM, below 1000 nM and 250 to 2500 nM.
The corresponding values for `CNCCN(C)Cc1ncccc1N1CCc2ccc(C#N)cc2CC1` [P225] are below 50 nM, below 1000 nM and below 250 nM.
